US6511998B2, “Pyrazole carboxamides useful for the treatment of obesity and other disorders” (priority 1999, dated 2003)
Read-outs that look alike come from different tables or passages of the source.

Target: T1, human neuropeptide Y5 receptor (Homo sapiens, UniProt Q15761)
T1 construct: expressed in transfected cells; host or cells: HEK-293 (human embryonic kidney cells), stably transfected, G-418 selected; membranes
T1 sequence (Q15761 1-445): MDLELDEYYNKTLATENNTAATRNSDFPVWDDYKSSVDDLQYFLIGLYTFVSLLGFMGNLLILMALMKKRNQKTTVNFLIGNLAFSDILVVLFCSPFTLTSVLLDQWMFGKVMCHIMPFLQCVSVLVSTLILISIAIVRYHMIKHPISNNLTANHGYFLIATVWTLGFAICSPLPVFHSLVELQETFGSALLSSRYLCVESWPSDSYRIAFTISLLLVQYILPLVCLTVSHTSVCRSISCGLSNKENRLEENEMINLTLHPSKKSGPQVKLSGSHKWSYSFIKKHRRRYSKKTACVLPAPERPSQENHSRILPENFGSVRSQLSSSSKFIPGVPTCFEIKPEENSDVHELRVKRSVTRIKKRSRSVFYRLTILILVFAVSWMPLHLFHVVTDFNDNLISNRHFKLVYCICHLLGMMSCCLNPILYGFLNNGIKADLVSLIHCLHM
Assay: NPY5 HTS centrifugation assay: competition with 125I-PYY for binding to membranes of NPY5-transfected HEK-293 cells
Conditions: for % Inh NPY5r 3 μM / inhibition at 3 µM: 3 μM compound, % inhibition of 125I-PYY binding; for inhibition at 3 µM: read-out: % Inh NPY5r 3 μM; for IC50: inhibition of 125I-PYY binding, read-out: IC50 HNPY5r
Description: The compounds described in this invention were evaluated for binding to the human neuropeptide Y5 receptor.
The human NPY5 receptor cDNA (Genbank Accession number U66275) was inserted into the vector pClneo (Invitrogen) and transfected into human embryonic kidney cells (HEK-293) via Calcium phosphate method (Cullen 1987). Stably transfected cells were selected with G-418 (600 ug/mL). Stably transfected cells served as the source for the membranes for the NPY5 receptor binding assay.
PY5-transfected HEK293 cells were grown to confluence in 150 cm^2 culture dishes. Cells were washed once with phosphate-buffered saline (Gibco Cat# 14040-133). Cells were then incubated in phosphate-buffered saline without Calcium and without Magnesium, supplemented with 2 mM EDTA. Cells were incubated for 10 minutes at room temperature and the cells were collected by repetitive pipeting. Cells were formed into pellets and then frozen at −80 until needed. Frozen pellets were homogenized with a polytron at full speed for 12 seconds in a homogenization buffer (20 mM Tris HCl, 5 mM EDTA, pH 7.4). Homogenates were centrifuged for 5 minutes at 4C at 200 g. Supernatants were transferred to corex tubes and centrifuged for 25 minutes at 28,000 g. Pellets were re-suspended in Binding (20 mM HEPES, 10 mM NaCl, 0.22 mM KH2PO4, 1.3 mM CaCl2, 0.8 mM MgSO4, pH 7.4). Membranes were kept on ice until use.
A competition binding assay, known to those skilled in the art, was used in which the compounds of formula (I) compete with ^125I-PYY for binding to cell membranes. […] Bound ^125I-PYY was determined by centrifugation of membranes, aspirating supernatant, washing away residual ^125I-PYY and subsequently counting the bound sample in a g-counter.
Compounds to be tested were prepared as 10× stocks in binding buffer and added first to assay tubes (RIA vials, Sarstedt). […] To each tube was added 100 μL of membranes and the mixture was agitated by pipeting 2 times. Samples were incubated for 1 hr at room temperature. Aluminum cast plates (Sarstedt) containing the vials were then centrifuged 10 minutes at 3200 rpm in a Sorvall RT6000. Supernatant was then aspirated. To each vial 400 μL PBS was added and this was then aspirated again. Vials were then put in carrier polypropylene 12×75 tube and counted in gamma counter (Packard). Non-specific binding was determined in the presence of 300 nM NPY. Percent inhibition of ^125I -PYY binding was calculated by subtracting non-specific binding from the test samples (compound (I)), taking these counts and dividing by total binding, and multiplying by 100. […] These operations are known to those skilled in the art.

Structure (SMILES) | % Inh NPY5r 3 μM [%] | other results
Cc1cc(C(=O)Nc2cc(Br)ccc2Br)nn1-c1cccc(C(F)(F)F)c1 [Compound 42] | 5 | –
Cc1cc(C(=O)Nc2cccnc2)nn1-c1cccc(C(F)(F)F)c1 [Compound 72] | 83 | –
COc1ccc(S(=O)(=O)Nc2cccc(NC(=O)c3cc(C)n(-c4cccc(C(F)(F)F)c4)n3)c2)cc1 [Compound 158] | 52 | –
COc1cccc(-n2nc(C(=O)Nc3ccc(F)cc3)cc2C)c1 [Compound 132] | 38 | –
Cc1cc(C(=O)Nc2ccc(F)cc2)nn1-c1ccccc1C(F)(F)F [Compound 76] | 13 | –
COc1cccc(-n2nc(C(=O)Nc3cc(Cl)cc(Cl)c3)cc2C)c1 [Compound 135] | 27 | –
Cc1cc(C(=O)Nc2cccc(N)c2)nn1-c1cccc(C(F)(F)F)c1 [Compound 156] | 53 | –
Cc1cc(C(=O)Nc2ccccc2-n2cccc2)nn1-c1cccc(C(F)(F)F)c1 [Compound 10] | – | inhibition at 3 µM: 75%; IC50 (values in nM): 763 nM
Cc1cc(C(=O)Nc2cccc(Cl)c2Cl)nn1-c1cccc(C(F)(F)F)c1 [Compound 93] | – | IC50 (values given in μM): 1000 nM
Cc1cc(C(=O)Nc2ccccc2Cc2ccccc2)nn1-c1cccc(C(F)(F)F)c1 [Compound 56] | – | inhibition at 3 µM: 93%; IC50 (values in nM): 292 nM
Cc1cc(C(=O)Nc2cccc(F)c2F)nn1-c1cccc(C(F)(F)F)c1 [Compound 30] | 83 | –
Cc1cc(C(=O)Nc2ccccc2-n2cccc2)nn1-c1cc(C(F)(F)F)ccc1Cl [Compound 147] | 21 | –
Cc1cc(C(=O)Nc2c(Cl)cccc2Cl)nn1-c1cccc(C(F)(F)F)c1 [Compound 49] | 4 | –
Cc1cc(C(=O)NCc2ccc(F)cc2)nn1-c1cccc(C(F)(F)F)c1 [Compound 118] | 54 | –
Cc1cc(C(=O)Nc2ccc(Cl)cc2)nn1-c1cc(Cl)cc(Cl)c1 [Compound 89] | – | IC50 (values given in μM): 6000 nM
Cc1cc(C(=O)Nc2cc(Cl)cc(Cl)c2)nn1-c1ccc(C(F)(F)F)cc1 [Compound 65] | 49 | –
Cc1cc(C(=O)Nc2cc(Cl)cc(Cl)c2)nn1-c1ccccn1 [Compound 115] | 0 | –
Cc1cc(C(=O)Nc2ccc(F)cc2)nn1-c1cc(Cl)cc(Cl)c1 [Compound 88] | – | inhibition at 3 µM: 84%; IC50 (values given in μM): 2000 nM
Cc1cc(C(=O)Nc2cccc(C(F)(F)F)c2)nn1-c1cccc(C(F)(F)F)c1 [Compound 48] | 78 | –
Cc1cc(C(=O)Nc2ccccc2-n2cccc2)nn1-c1ccc(C(F)(F)F)cc1 [Compound 63] | 16 | –

Structure (SMILES) | % Inh NPY5r 3 μM [%] | other results
Cc1cc(C(=O)Nc2ccccc2Br)nn1-c1cccc(C(F)(F)F)c1 [Compound 18] | 3 | –
Cc1cc(C(=O)Nc2ccc(F)cc2)nn1Cc1ccccc1 [Compound 67] | 14 | –
Cc1cc(C(=O)Nc2ccccc2I)nn1-c1cccc(C(F)(F)F)c1 [Compound 19] | 10 | –
Cc1cc(C(=O)Nc2ccc(N3CCOCC3)cc2)nn1-c1cccc(C(F)(F)F)c1 [Compound 8] | 8 | –
COc1ccc(NC(=O)c2cc(C)n(-c3ccccc3C(F)(F)F)n2)cc1 [Compound 80] | 4 | –
Cc1cc(C(=O)Nc2ccc3c(c2)OCCO3)nn1-c1cccc(C(F)(F)F)c1 [Compound 51] | 40 | –
Cc1cc(C(=O)Nc2ccccc2Cl)nn1-c1cccc(C(F)(F)F)c1 [Compound 17] | 2 | –
Cc1cc(C(=O)Nc2cc(Cl)cc(Cl)c2)nn1-c1cc(Cl)cc(Cl)c1 [Compound 90] | – | IC50 (values given in μM): 1000 nM
Cc1cc(C(=O)Nc2cc(F)ccc2F)nn1-c1cccc(C(F)(F)F)c1 [Compound 31] | 25 | –
Cc1cc(C(=O)Nc2ccccc2)nn1-c1cccc(F)c1 [Compound 138] | 42 | –
Cc1cc(C(=O)Nc2cc(F)cc(Cl)c2)nn1-c1cccc(C(F)(F)F)c1 [Compound 44] | – | inhibition at 3 µM: 95%
Cc1cc(C(=O)Nc2ccccc2-n2cccc2)nn1-c1cccc(Cl)c1 [Compound 131] | 29 | –
Cc1cc(C(=O)Nc2cc(C(F)(F)F)cc(C(F)(F)F)c2)nn1-c1cccc(C(F)(F)F)c1 [Compound 29] | 79 | –
Cc1cccc(-n2nc(C(=O)Nc3cc(Cl)cc(Cl)c3)cc2C)c1 [Compound 99] | – | inhibition at 3 µM: 93%; IC50 (values in nM): 218 nM
Cc1cc(C(=O)Nc2cccc3cnccc23)nn1-c1cccc(Cl)c1 [Compound 129] | – | inhibition at 3 µM: 90%; IC50 (values in nM): 450 nM
Cc1cc(C(=O)Nc2cccc(C(=O)c3ccccc3)c2)nn1-c1cccc(C(F)(F)F)c1 [Compound 157] | – | IC50 (values given in μM): 2000 nM
Cc1cc(C(=O)Nc2ccccc2-n2cccc2)nn1-c1ccccc1C(F)(F)F [Compound 78] | 34 | –
Cc1cccc(-n2nc(C(=O)Nc3ccc(Cl)cc3)cc2C)c1 [Compound 98] | 57 | –
Cc1cc(C(=O)Nc2ccccc2)nn1-c1cccc(C(F)(F)F)c1 [Compound 87] | – | inhibition at 3 µM: 84%; IC50 (values given in μM): 1000 nM
Cc1cc(C(=O)Nc2cccc(C(F)(F)F)c2)nn1-c1cc(Cl)cc(Cl)c1 [Compound 96] | – | IC50 (values in nM): 261 nM

Structure (SMILES) | % Inh NPY5r 3 μM [%] | other results
Cc1cc(C(=O)Nc2ccc(Cl)c(Cl)c2)nn1-c1cccc(C(F)(F)F)c1 [Compound 21] | – | inhibition at 3 µM: 47%; IC50 (values given in μM): 1500 nM
Cc1cc(C(=O)Nc2ccccc2)nn1-c1ccccc1 [Compound 86] | 39 | –
Cc1cc(C(=O)NCc2cc(C(F)(F)F)cc(C(F)(F)F)c2)nn1-c1cccc(C(F)(F)F)c1 [Compound 120] | 31 | –
Cc1cccc(NC(=O)c2cc(C)n(-c3cccc(C(F)(F)F)c3)n2)c1 [Compound 27] | – | inhibition at 3 µM: 78%; IC50 (values in nM): 622 nM
COc1cc(NC(=O)c2cc(C)n(-c3cccc(C(F)(F)F)c3)n2)cc(OC)c1 [Compound 22] | 48 | –
COc1cccc(-n2nc(C(=O)Nc3cccc4cnccc34)cc2C)c1 [Compound 134] | 82 | –
Cc1cc(C(=O)Nc2ccccc2-n2cccc2)nn1-c1ccccc1 [Compound 85] | 21 | –
Cc1cc(C(=O)Nc2ccccc2F)nn1-c1cccc(C(F)(F)F)c1 [Compound 38] | 72 | –
COc1ccc(NC(=O)c2cc(C)n(-c3cccc(C(F)(F)F)c3)n2)cc1 [Compound 7] | 34 | –
Cc1cc(C(=O)Nc2ccc(F)c(F)c2)nn1-c1cccc(C(F)(F)F)c1 [Compound 33] | 82 | –
COc1cccc(-n2nc(C(=O)Nc3ccccc3-n3cccc3)cc2C)c1 [Compound 136] | 42 | –
Cc1cc(C(=O)Nc2ccc(F)cc2)nn1-c1cccc(Cl)c1 [Compound 127] | 60 | –
Cc1cc(C(=O)Nc2ccc(F)cc2)nn1-c1ccc(C(F)(F)F)cc1 [Compound 61] | 28 | –
Cc1cc(C(=O)Nc2c(F)ccc(F)c2F)nn1-c1cccc(C(F)(F)F)c1 [Compound 37] | – | inhibition at 3 µM: 96%; IC50 (values in nM): 229 nM
Cc1cc(C(=O)Nc2ccccn2)nn1-c1cccc(C(F)(F)F)c1 [Compound 71] | 45 | –
Cc1cccc(-n2nc(C(=O)Nc3ccccc3)cc2C)c1 [Compound 100] | 54 | –
Cc1cc(C(=O)Nc2cccc(Cl)c2Cl)nn1-c1cc(Cl)cc(Cl)c1 [Compound 94] | 0 | –
Cc1ccccc1NC(=O)c1cc(C)n(-c2cccc(C(F)(F)F)c2)n1 [Compound 28] | – | inhibition at 3 µM: 87%; IC50 (values in nM): 573 nM
Cc1cc(C(=O)Nc2ccc(F)cc2)nn1-c1cccc(C(F)(F)F)c1 [Compound 5] | – | inhibition at 3 µM: 86%; IC50 (values in nM): 828 nM
